Laboratory results as given in patent US8846570B2, “Herbicidal compositions comprising 4-amino-3-chloro-5-fluoro-6-(4-chloro-2-fluoro-3-methoxyphenyl)pyridine-2-carboxylic acid or a derivative thereof and microtubule inhibiting herbicides” (Dow AgroSciences LLC, priority 2012, dated 2014).

Experiments:
Experiment in all cases: Pre-emergence soil-applied, greenhouse: visual weed control
Assay type in all cases: in vivo
[1] = system: Brachiaria platyphylla (Groseb.) Nash or Urochloa platyphylla (Nash) R.D. Webster (BRAPP)
Source text: (§1) Seeds or nutlets of the desired test plant species were planted in a soil matrix prepared by mixing a loam soil (e.g., 32 percent silt, 23 percent clay, and 45 percent sand, with a pH of about 6.5 and an organic matter content of about 1.9 percent) and calcareous grit in an 80 to 20 ratio. The soil matrix was contained in plastic pots with a volume of 1 quart and a surface area of 83.6 square centimeters (cm^2).
(§2) Treatments consisted of the benzyl ester of 4-amino-3-chloro-5-fluoro-6-(4-chloro-2-fluoro-3-methoxy-phenyl)pyridine-2-carboxylic acid (compound A) formulated as an SC (suspension concentrate) and various herbicidal components alone and in combination. Forms of compound A were applied on an acid equivalent basis.
(§3) Treatment requirements were calculated based upon the rates being tested, the concentration of active ingredient or acid equivalent in the formulation, and a 12 mL application volume at a rate of 187 L/ha.
(§4) For treatments comprised of formulated compounds, measured amounts of compounds were placed individually in 25 mL glass vials and diluted in a volume of 1.25% (v/v) Agri-Dex® crop oil concentrate (COC) to obtain 12× stock solutions. […] Application solutions were prepared by adding an appropriate amount of each stock solution (e.g., 1 mL) and diluted to the appropriate final concentrations with the addition of 10 mL of an aqueous mixture of 1.25% (v/v) COC so that the final spray solutions contained 1.25% (v/v) COC.
(§5) For treatments comprised of formulated and technical compounds, weighed amounts of the technical materials were placed individually in 25 mL glass vials and dissolved in a volume of 97:3 (v/v) acetone/DMSO to obtain 12× stock solutions, and measured amounts of the formulated compounds were placed individually in 25 mL glass vials and diluted in a volume of 1.5% (v/v) COC or water to obtain 12× stock solutions. […] Application solutions were prepared by adding an appropriate amount of each stock solution (e.g., 1 mL) and diluted to the appropriate final concentrations with the addition of an appropriate amount of an aqueous mixture of 1.5% (v/v) COC so that the final spray solutions contained 1.25% (v/v) COC. As required, additional water and/or 97:3 (v/v) acetone/DMSO was added to individual application solutions so that the final acetone and DMSO concentrations of the application solutions being compared were 8.1% and 0.25%, respectively.
(§6) All stock solutions and applications solutions were visually inspected for compound compatibility prior to application. Spray solutions were applied to the soil with an overhead Mandel track sprayer equipped with a 8002E nozzles calibrated to deliver 187 L/ha over an application area of 0.503 m^2 at a spray height of 18 inches (46 cm) above average pot height. Control pots were sprayed in the same manner with the solvent blank.
(§7) The treated and control pots were placed in a greenhouse and top watered as needed. When required to ensure good germination and healthy plants, a fungicide treatment and/or other chemical or physical treatment was applied. The pots were maintained in a greenhouse with an approximate 14 hr photoperiod which was maintained at about 29° C. during the day and 26° C. during the night. Nutrients (Peters® Excel 15-5-15 5-Ca 2-Mg) were applied in the irrigation solution as needed and water was added on a regular basis. Supplemental lighting was provided with overhead metal halide 1000-Watt lamps as necessary. After approximately 4 weeks, the condition of the test plants as compared with that of the untreated plants was determined visually and scored on a scale of 0 to 100 percent where 0 corresponds to no injury or growth inhibition and 100 corresponds to complete kill.
(§8) Colby's equation was used to determine the herbicidal effects expected from the mixtures (Colby, S. R. 1967. Calculation of the synergistic and antagonistic response of herbicide combinations. Weeds 15:20-22.). […]

[2] = system: Echinochloa colonum (L.) Link (ECHCO)
Source text: as §1, §2, §3, §4, §5, §6, §7, §8

[3] = system: Echinochloa crus-galli (L.) P. Beauv. (ECHCG)
Source text: as §1, §2, §3, §4, §5, §6, §7, §8

[4] = system: Sesbania exaltata (Raf.) Cory/Rydb. Ex Hill (SEBEX); details: Compound A Benzyl Ester 16 g ae/ha alone
Source text: as §1, §2, §3, §4, §5, §6, §7, §8

[5] = system: Setaria faberi Herrm. (SETFA)
Source text: as §1, §2, §3, §4, §5, §6, §7, §8

[6] = system: Xanthium strumarium L. (XANST); details: 27 DAA
Source text: as §1, §2, §3, §4, §5, §6, §7, §8

[7] = Compound A Benzyl Ester 16 g ae/ha alone
[8] = Compound A Benzyl Ester 32 g ae/ha alone

| Compound | Visual Weed Control (%) - 33 DAA BRAPP Obs [1, 7] [%] | Visual Weed Control (%) - 33 DAA BRAPP Obs [1, 8] [%] | Visual Weed Control (%) - 33 DAA ECHCO Obs [2, 7] [%] | Visual Weed Control (%) - 33 DAA ECHCO Obs [2, 8] [%] | Visual Weed Control (%) - 33 DAA ECHCG Obs [3, 7] [%] | Visual Weed Control (%) - 33 DAA ECHCG Obs [3, 8] [%] | Visual Weed Control (%) - 33 DAA SEBEX Obs [4] [%] | Visual Weed Control (%) - 33 DAA SETFA Obs [5, 7] [%] | Visual Weed Control (%) - 33 DAA SETFA Obs [5, 8] [%] | Visual Weed Control (%) Obs ([6]; 140 g ai/ha) [%] | Visual Weed Control (%) Obs ([6]; 280 g ai/ha) [%] |
| --- | --- | --- | --- | --- | --- | --- | --- | --- | --- | --- | --- |
| COc1c(Cl)ccc(-c2nc(C(=O)OCc3ccccc3)c(Cl)c(N)c2F)c1F [Compound A Benzyl Ester, benzyl ester of 4-amino-3-chloro-5-fluoro-6-(4-chloro-2-fluoro-3-methoxy-phenyl)pyridine-2-carboxylic acid] | 23 | 50 | 12 | 3 | 20 | 33 | 40 | 13 | 13 | – | – |
| CSC(=O)c1c(C(F)F)nc(C(F)(F)F)c(C(=O)SC)c1CC(C)C [Dithiopyr, S,S′-dimethyl-2-(difluoromethyl)-4-(2-methylpropyl)-6-(trifluoromethyl)-3,5-pyridinedicarbothioate] | – | – | – | – | – | – | – | – | – | 0 | 17 |
